Some test systems named below: HT29 colon; SNB-19 CNS; NCI-H226 lung; RPMI-8226 leukemia; SF-268 CNS; 786-0 renal; NCI-H23 lung; MDA-MB-231 breast; DU-145 prostate; M14 melanoma.
What all share (experiment): NCI tumour cell line growth inhibition, 48 h

“And” between values parts separate entries of the source, which are not always exact repeats. Equal entries are not always repeated.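 In this assay, cells in 96-well plates receive the compound at five concentrations for 48 hours. Endpoints are linearly interpolated between the surrounding concentrations. GI50 marks 50% less growth. At the TGI there is no net growth.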

With `O=C(O)c1nc2nc(Cl)c(Cl)nc2[nH]1`, the TGI in the assay on HT29 colon, with SNB-19 CNS, in the assay with NCI-H226 lung, in the assay with RPMI-8226 leukemia, in the assay with SF-268 CNS and in the assay on 786-0 renal was more than 100 µM throughout. In addition, the TGI with NCI-H23 lung, in the assay with MDA-MB-231 breast, in the assay with DU-145 prostate and in the assay on M14 melanoma was more than 100 µM each time.
Turning to `COc1cccc(-c2nc(-c3ccc(NC(=O)OC(C)C)cc3)[nH]c2-c2ccnc(Br)c2)c1`, the GI50 in the assay with HT29 colon is 2.37 µM; in the assay on SNB-19 CNS, 3.19 µM; with NCI-H226 lung, 2.46 µM; in the assay on RPMI-8226 leukemia, 0.389 µM; in the assay on SF-268 CNS, 3.35 µM; in the assay with 786-0 renal, 0.974 µM. Moreover, the GI50 with NCI-H23 lung was 2.61 µM; in the assay with MDA-MB-231 breast, 3.85 µM; in the assay with DU-145 prostate, 3.33 µM; in the assay with M14 melanoma, 3.06 µM. Further, the TGI is more than 100 µM in the assay on HT29 colon; more than 100 µM in the assay on SNB-19 CNS; 87.5 µM in the assay with NCI-H226 lung; 2.21 µM in the assay on RPMI-8226 leukemia; more than 100 µM with SF-268 CNS; more than 100 µM with 786-0 renal. In addition, the TGI in the assay with NCI-H23 lung is 9.54 µM; in the assay with MDA-MB-231 breast, more than 100 µM; in the assay with DU-145 prostate, more than 100 µM; in the assay on M14 melanoma, more than 100 µM.
As for `O=[N+]([O-])c1ccc(Cl)cc1N/N=C/c1ccnc2ccccc12`, the TGI with HT29 colon, in the assay on SNB-19 CNS, in the assay with NCI-H226 lung, with RPMI-8226 leukemia, in the assay with SF-268 CNS and in the assay with 786-0 renal was more than 100 µM throughout. Also, the TGI in the assay on NCI-H23 lung, in the assay with MDA-MB-231 breast, with DU-145 prostate and in the assay on M14 melanoma was more than 100 µM each time.
In the case of `Nc1n[nH]c2cc(F)c([C@@H]3Nc4ccc5[nH]ncc5c4[C@H]4C5CCC(C5)[C@@H]34)cc12` (stereo not given in full), the GI50 is 0.182 µM in the assay with HT29 colon; 1.03 µM in the assay on SNB-19 CNS; 0.192 µM in the assay with NCI-H226 lung; 0.173 µM with RPMI-8226 leukemia; 0.368 µM with SF-268 CNS; 0.25 µM in the assay with 786-0 renal. In addition, the GI50 in the assay on NCI-H23 lung was 0.193 µM; in the assay with MDA-MB-231 breast it was 0.2 µM; in the assay with DU-145 prostate it was 0.205 µM; in the assay with M14 melanoma, 0.147 µM. The TGI was more than 50 µM in the assay on HT29 colon; more than 35 µM in the assay with SNB-19 CNS; 3.38 µM with NCI-H226 lung; 1.82 µM in the assay on RPMI-8226 leukemia; 14.9 µM with SF-268 CNS; 12 µM in the assay with 786-0 renal. Besides, the TGI turned out to be 7.77 µM in the assay with NCI-H23 lung, 7.86 µM in the assay on MDA-MB-231 breast, 8.75 µM with DU-145 prostate and 12.3 µM in the assay on M14 melanoma.
Consider `CC1(COc2ccc3c(c2)ncn3-c2ccc3cccc(N4CCC(N)CC4)c3n2)COC1`, for which the GI50 with HT29 colon was 2.92 µM and 3.29 µM; with SNB-19 CNS, 4.35 µM and 3.36 µM; with NCI-H226 lung, 3.18 µM and 2.54 µM; in the assay with RPMI-8226 leukemia, 2.08 µM and 1.88 µM; with SF-268 CNS, 2.74 µM and 2.85 µM; with 786-0 renal it was 1.8 µM and 1.75 µM. The GI50 with NCI-H23 lung was 2.13 µM and 1.94 µM; in the assay with MDA-MB-231 breast it was 2.55 µM and 1.88 µM; in the assay with DU-145 prostate, 2.19 µM and 1.5 µM; in the assay with M14 melanoma, 3.55 µM and 2.68 µM. Moreover, the TGI with HT29 colon is 7.99 µM and > 10 µM; in the assay with SNB-19 CNS it was 13.2 µM and > 10 µM; in the assay on NCI-H226 lung, 9.32 µM and > 10 µM; with RPMI-8226 leukemia, 5.29 µM and 5.21 µM; with SF-268 CNS, 9.15 µM and > 10 µM; in the assay with 786-0 renal it was 4.63 µM and 3.85 µM. Besides, the TGI in the assay with NCI-H23 lung was 8.59 µM and 5.28 µM; in the assay on MDA-MB-231 breast it was 8.69 µM and 7.63 µM; in the assay on DU-145 prostate, 13 µM and > 10 µM; in the assay with M14 melanoma it was 10.1 µM and 6.77 µM.
In the case of `CCC(=C/[C@H](C)C/C=C/C(C)=C/[C@@H](C)C(=O)[C@@H](C)[C@H](O)[C@@H](C)CC)/C=C/[C@H]1OC(=O)C=C[C@@H]1C`, the GI50 in the assay on HT29 colon, in the assay with SNB-19 CNS, in the assay on NCI-H226 lung, with RPMI-8226 leukemia, in the assay with SF-268 CNS and in the assay on 786-0 renal was less than 0.01 µM throughout. The GI50 in the assay with NCI-H23 lung, with MDA-MB-231 breast, with DU-145 prostate and in the assay on M14 melanoma was less than 0.01 µM each time. Besides, the TGI is 1.15 µM in the assay on HT29 colon; 2.12 µM with SNB-19 CNS; 0.554 µM with NCI-H226 lung; 1.19 µM in the assay on RPMI-8226 leukemia; 1.72 µM in the assay with SF-268 CNS; less than 0.0219 µM in the assay on 786-0 renal. In addition, the TGI stood at 3.36 µM in the assay with NCI-H23 lung, 2.18 µM with MDA-MB-231 breast, 4.56 µM with DU-145 prostate and 0.193 µM in the assay with M14 melanoma.
For `O=C(Nc1ccc(Oc2ccc(Nc3nc4ccccc4s3)cc2)cc1)Nc1ccc(Cl)c(C(F)(F)F)c1`, the GI50 in the assay on HT29 colon was 1.72 µM; in the assay with SNB-19 CNS it was 1.71 µM; with NCI-H226 lung, 1.39 µM; in the assay with RPMI-8226 leukemia, 1.11 µM; with SF-268 CNS, 1.94 µM; with 786-0 renal, 1.79 µM. Moreover, the GI50 in the assay with NCI-H23 lung is 1.06 µM; in the assay with MDA-MB-231 breast, 1.37 µM; in the assay on DU-145 prostate, 2.47 µM; with M14 melanoma it was 1.46 µM. Besides, the TGI in the assay on HT29 colon is 3.23 µM; in the assay with SNB-19 CNS, 3.62 µM; in the assay with NCI-H226 lung it was 3.33 µM; with RPMI-8226 leukemia, 4.34 µM; in the assay with SF-268 CNS it was 4.74 µM; in the assay on 786-0 renal it was 4.63 µM. Moreover, the TGI in the assay on NCI-H23 lung came out at 2.77 µM; in the assay with MDA-MB-231 breast, 2.86 µM; in the assay with DU-145 prostate, 7.22 µM; in the assay with M14 melanoma, 3.13 µM.
In the case of `CCCCCCCCCCCCC(O)c1ccc(C#CCCCCCCCCCO)o1` (stereo not given), the GI50 in the assay with HT29 colon was 69.9 µM; in the assay on SNB-19 CNS it was 31.7 µM; with NCI-H226 lung it was 21.2 µM; in the assay on RPMI-8226 leukemia, 27.2 µM; in the assay on SF-268 CNS it was 23.2 µM; with 786-0 renal it was 18.9 µM. Besides, the GI50 was 26.4 µM in the assay on NCI-H23 lung, 20.4 µM in the assay with MDA-MB-231 breast, 18.8 µM in the assay with DU-145 prostate and 17.4 µM in the assay on M14 melanoma. For the same molecule, the TGI with HT29 colon was more than 100 µM; in the assay on SNB-19 CNS, 83.1 µM; with NCI-H226 lung, 37.9 µM; in the assay on RPMI-8226 leukemia, 71.3 µM; in the assay with SF-268 CNS, 49.4 µM; in the assay with 786-0 renal, 34.4 µM. Further, the TGI amounted to 48.8 µM with NCI-H23 lung, 36.2 µM with MDA-MB-231 breast, 33 µM in the assay on DU-145 prostate and 31.9 µM in the assay with M14 melanoma.
